Test system: human pancreatic cancer cell line CFPAC-1
Assay: Antitumor test (1), subcutaneous xenograft
Assay type: in vivo, mouse
Settings: single administration, talazoparib 0.8 mg/kg oral for 5 days from Day 0, Day 35, CFPAC-1
Procedure: Mouse: Five- to six-week-old female BALB/c nude mice (Charles River Laboratories Japan, Inc.) were subjected to experiment. Assay and calculation formula: In all of the studies, the major axis and minor axis of a tumor were measured twice a week by using an electronic digital caliper ([…] Corp.), and the tumor volume (mm^3) was calculated. The calculation formula is as shown below. [formula] Each of the anti-CLDN6 antibody-drug conjugate ADC1, the anti-HER2 antibody-drug conjugate ADC2, and the anti-TROP2 antibody-drug conjugate ADC3 was diluted with ABS buffer (10 mM acetate buffer (pH 5.5), 5% sorbitol), and a liquid volume of 10 mL/kg was intravenously administered into the tail vein. […] LLC)/Dulbecco's Phosphate-Buffered Saline, and then a liquid volume of 10 mL/kg was intraperitoneally administered. […] LLC)/Dulbecco's Phosphate-Buffered Saline, and then a liquid volume of 10 mL/kg was orally administered. Niraparib was dissolved in DMSO, diluted with 0.5% methylcellulose, and then a liquid volume of 10 mL/kg was orally administered. The described method is common to Examples 34 to 37. […]

Cn1ncnc1[C@H]1c2n[nH]c(=O)c3cc(F)cc(c23)N[C@@H]1c1ccc(F)cc1 [talazoparib]
tumor growth inhibition (TGI): 17%
